Test [1] deals with seasonal flu or similar infectious disease. It counts as in vivo, human. The note with it: S1, 2 or 3 times 1×500 mg during work days, before DGA.
In test [2] the test system is acute bowels inflammation caused by diverticulitis. Briefly: Healing from acute inflammatory bowels disease (diverticulitis) in S4, Example 1e. It counts as in vivo, human. The following applies: S4, 1000 mg 1-2 times a day, before DGA. An excerpt:
In Example 1e the resolution of gastrointestinal tract infection in another subject 4 (S4) has been shown. Like in S1 also in S4 the HO-1 pathway is clearly activated by the DGA Activation. This is indirectly shown by the clear reduction of blood bilirubin in Table 1e. […] During last few years these seldom but acute inflammations in the gastrointestinal tract have been mostly in the colon and caused by inflammation in Colonic diverticula. […] The only functioning therapy for inflammatory bowels disease has been the administration of strong intravenous antibiotics.
Like other tests with unhealthy humans also this test was done because there were no other efficient substances available. When symptoms of increased bowels inflammation/diverticulosis started S4 was on holiday abroad with very difficult access to any specialized doctor not to mention any hospital. […] Simultaneously with inflammatory symptoms and maybe partially enhancing them S4 experienced constipation.
By Saturday night on the 4th day of gradually increasing acute inflammation in the colon, S4 decided to test whether DGA Activation in combination with paracetamol would assist in resolving this already rather serious inflammation. There were no other available options at that moment. This decision was also supported by confidential information received on positive results with S1 (Examples 1b and 1c).
Saturday night at 0737 pm first 260 mg of D-glyceric acid calcium salt mixed into water was taken with 2×500 mg of paracetamol. Another additional 260 mg dose of DGAcs mixed into water was taken the same night at 1020 pm. Altogether the starting dose was 9 mg/kg i.e. relatively high. High initial dose was chosen because of high level of inflammation.

Turning to `CC(=O)Nc1ccc(O)cc1` [paracetamol, reference compound], the “effect on general symptoms and fever” value in test [1] was “temporary relief but no cure”. In addition, the “effect on pains and symptoms” value in test [2] was “helped to relief pains for 2-3 days but the symptoms got worse”.
